Drawing on patent publication US20250388575A1, “HETEROBIFUNCTIONAL COMPOUNDS AND METHODS OF TREATING DISEASE” (Halda Therapeutics OpCo, Inc., priority 2022, published 2025), this text covers GI50 for 18 molecules.

Broadly, the GI50 is the concentration giving 50% growth inhibition.

Assay [1] deals with T-Rex 293 cell line SC3 cells having increased expression of androgen receptor protein. The assay is described as follows: Cellular growth inhibition, T-Rex 293 SC3 cells with increased androgen receptor expression (doxycycline), CellTiter-Glo. The note with it: T-Rex 293 SC3 cells with increased androgen receptor expression (exposed to 10 ng/mL doxycycline), 72 hours, CellTiter-Glo; read-out: GI50. Type of assay: cell-based. The procedure: (§1) The following types of cells were prepared for this experiment: (i) a T-Rex 293 cell line having increased expression of androgen receptor protein due to exposure to doxycycline and (ii) a T-Rex 293 cell line lacking increased expression of androgen receptor protein. Ability of the test compounds to inhibit proliferation of the foregoing cell types was evaluated according to the procedures set forth below.
(§2) The doxycycline-inducible androgen receptor protein expressing cell line was established using the following protocol: T-Rex 293 cells were purchased from Invitrogen (Cat #R71007) and transfected using Lipofectamine 2000 with the wild-type androgen receptor protein sequence cloned into the pcDNA4/TO vector. Transfected cells were selected using 400 μg/mL Zeocin (Invitrogen Cat #R25001). Following selection, single clones were raised and maintained in Dulbecco's Modified Eagle Medium (DMEM) supplemented with 10% w/w Tetracycline-free fetal bovine serum (FBS) and 250 μg/mL Zeocin. Clones were analyzed for expression of androgen receptor protein in the presence and absence of 10 ng/ml doxycycline (Sigma Cat #D9891), and a single doxycycline-inducible clone (hereinafter “SC3”) was selected for use in downstream assays.
(§3) The SC3 cells were seeded on poly-D-lysine coated, black clear-bottom 384-well plates at 2500/well, in 25 μL Phenol Red Free Dulbecco's Modified Eagle Medium (DMEM) supplemented with 10% w/w charcoal-dextran treated fetal bovine serum (FBS) and 1% w/w pen-strep, with or without 10 ng/mL doxycycline. Pen-Strep is a commercially available mixture of penicillin G and streptomycin, which is used in mammalian cell culture media to prevent bacterial contamination. Phenol Red Free Dulbecco's Modified Eagle Medium (DMEM) supplemented with 10% w/w charcoal-dextran treated fetal bovine serum (FBS) and 1% w/w pen-strep, with or without 10 ng/mL doxycycline is herein referred to as Treatment Medium. Following seeding of cells in the plates, the plates were spun at 300×g for 30 seconds, then equilibrated to room temperature for 30 minutes, and then deposited in a humidified tissue culture incubator maintained at 37° C. with 5% CO2.
(§4) At 24 hours after seeding of the cells, dilutions of test compound were prepared in DMSO and dissolved in Treatment Medium, to achieve a final DMSO concentration of 0.5% w/w, thereby providing the Test Compound Solution. A 25 μL aliquot of the Test Compound Solution was added to cells in the well plates. An equal volume of a solution containing DMSO and Treatment Medium was used as a negative control. Following treatment of cells with Test Compound Solution or said equal volume of a solution containing DMSO and Treatment Medium, the plates were spun at 300×g for 30 seconds, and then left in an incubator for 72 hours.
(§5) At the end of the treatment duration, cell viability was quantified with CellTiter-Glo 2.0 reagent (Promega Cat #G9243). For this purpose, plates were equilibrated to room temperature for 30 minutes, and then 25 μL of CellTiter-Glo 2.0 reagent was added to cells in the plate wells. Plates were then agitated on a shaker for two minutes at 500 rpm and subsequently incubated at room temperature for 10 minutes. Following incubation, the plates were spun at 3000×g for 30 seconds, then sealed with an optical adhesive cover, and luminescence readings were measured with an EnVision Plate Reader.
(§6) Data was normalized using zero luminescence for baseline. A four-parameter non-linear regression curve fit was applied to dose-response data in GraphPad Prism data analysis software to determine the half-maximal growth inhibitory concentration (GI50) for each test compound.
In general terms: Cellular ATP, detected with luciferase, serves as a proxy for viable cell number.

In assay [2] the test system is T-Rex 293 cell line SC3 cells lacking increased expression of androgen receptor protein. Description: Cellular growth inhibition, T-Rex 293 SC3 cells lacking increased androgen receptor expression (no doxycycline), CellTiter-Glo. Type of assay: cell-based. The note with it: T-Rex 293 SC3 cells lacking increased androgen receptor expression (not exposed to doxycycline), 72 hours, CellTiter-Glo; read-out: GI50. Here is the method:
as §1, §2, §3, §4, §5, §6

A further assay deals with VCaP cells. Description: Cellular growth inhibition assay for VCaP cells, CellTiter-Glo. It is filed as cell-based, human. The note with it: VCaP cells, 72 hours, CellTiter-Glo, read-out: GI50. The procedure:
VCaP cells were purchased from American Type Cell Culture (ATCC Cat #CRL2876) and then seeded on poly-D-lysine coated, black clear-bottom 384-well plates at 5000/well in 25 μL Dulbecco's Modified Eagle Medium (DMEM) supplemented with 10% w/w Fetal bovine serum (FBS) and 1% w/w Pen-Strep. Pen-Strep is a commercially available mixture of penicillin G and streptomycin, which is used in mammalian cell culture media to prevent bacterial contamination. Dulbecco's Modified Eagle Medium (DMEM) supplemented with 10% w/w fetal bovine serum (FBS) and 1% w/w Pen-Strep is herein referred to as Treatment Medium. Following seeding of cells in the plates, the plates were spun at 300×g for 30 seconds, then equilibrated to room temperature for 30 minutes, and then deposited in a humidified tissue culture incubator maintained at 37° C. with 5% CO2.
as §4, §5, §6

Like-named read-outs stand apart in the source and are kept apart here.

Consider `Cn1cc(-c2cc(C(C)(C)O)ccc2OC2CC(OCC3CCN(c4ccc(C(=O)NC5CCC(Oc6ccc(C#N)c(Cl)c6)CC5)nn4)CC3)C2)c2ccccc2c1=O` (stereo not drawn) [I-247, N-[4-(3-chloro-4-cyano-phenoxy)cyclohexyl]-6-[4-[[3-[4-(1-hydroxy-1-methyl-ethyl)-2-(2-methyl-1-oxo-4-isoquinolyl)phenoxy]cyclobutoxy]methyl]-1-piperidyl]pyridazine-3-carboxamide], for which the values for the GI50 (in assay [1]; in assay [2]; in the assay with VCaP cells (Homo sapiens)) were below 500 nM, above 3000 nM and below 500 nM, respectively.

With `CCS(=O)(=O)c1ccc(Oc2ccc(CCCC3CCN(c4ccc(C(=O)N[C@H]5CC[C@H](Oc6ccc(C#N)c(Cl)c6)CC5)nn4)CC3)c(F)c2)c(-c2cn(C)c(=O)c3[nH]ccc23)c1` [I-83], the GI50 (in assay [1]; in assay [2]; with VCaP cells (Homo sapiens)) was below 500 nM throughout.

`CCS(=O)(=O)Nc1ccc(Oc2cccc(OCCOC3CCN(c4ccc(C(=O)N[C@H]5CC[C@H](Oc6ccc(C#N)c(Cl)c6)CC5)nn4)CC3)c2F)c(-c2cn(C)c(=O)c3[nH]ccc23)c1` [I-16]: the GI50 (in assay [1]; in assay [2]; in the assay with VCaP cells (Homo sapiens)) was below 500 nM throughout.

As to `Cn1cc(-c2cc(NC(=O)CCCCCOC3CCN(c4ccc(C(=O)N[C@H]5CC[C@H](Oc6ccc(C#N)c(Cl)c6)CC5)nn4)CC3)ccc2Oc2ccc(F)cc2F)c2cc[nH]c2c1=O` [I-215], the values for the concentration for 50% growth inhibition (GI50) (in assay [1]; in assay [2]; with VCaP cells) were below 500 nM, 500 to 1500 nM and above 3000 nM, respectively.

Consider `CCS(=O)(=O)c1ccc(Oc2cccc(OCCOC3CCN(c4ccc(C(=O)N[C@H]5CC[C@H](Oc6ccc(C#N)c(Cl)c6)CC5)nn4)CC3)c2F)c(-c2cn(C)c(=O)c3[nH]ccc23)c1` [I-23], for which the GI50 (in assay [1]; in assay [2]; in the assay with VCaP cells (Homo sapiens)) was below 500 nM throughout.

Regarding `Cn1cc(-c2cc(C3(O)COC3)ccc2Oc2ccc(OCC3CCN(c4ccc(C(=O)NC5CCC(Oc6ccc(C#N)c(Cl)c6)CC5)nn4)CC3)cc2)c2cc[nH]c2c1=O` (stereo not drawn) [I-236, N-[4-(3-chloro-4-cyano-phenoxy)cyclohexyl]-6-[4-[[4-[4-(3-hydroxyoxetan-3-yl)-2-(6-methyl-7-oxo-1H-pyrrolo[2,3-c]pyridin-4-yl)phenoxy]phenoxy]methyl]-1-piperidyl]pyridazine-3-carboxamide], the GI50 in assay [1] is below 500 nM; in assay [2] it was above 3000 nM; with VCaP cells, below 500 nM.

Consider `Cn1cc(-c2cc(C(C)(C)O)ccc2Oc2cccc(N3CC(N(C4CC4)C4CCN(c5ccc(C(=O)N[C@H]6CC[C@H](Oc7ccc(C#N)c(Cl)c7)CC6)nn5)CC4)C3)c2F)c2cc[nH]c2c1=O` [I-145], for which the GI50 was below 500 nM in assay [1], above 3000 nM in assay [2] and below 500 nM in the assay on VCaP cells.

Consider `Cn1cc(-c2cc(NS(=O)(=O)CC(F)(F)F)ccc2Oc2cccc(OCCOC3CCN(c4ccc(C(=O)N[C@H]5CC[C@H](Oc6ccc(C#N)c(Cl)c6)CC5)nn4)CC3)c2F)c2cc[nH]c2c1=O` [I-17], for which the GI50 (in assay [1]; in assay [2]; in the assay on VCaP cells (Homo sapiens)) was below 500 nM in each case.

With `CCS(=O)(=O)Nc1ccc(Oc2cccc(CCCN3CCN(c4ccc(C(=O)N[C@H]5CC[C@H](Oc6ccc(C#N)c(Cl)c6)CC5)nn4)CC3)c2F)c(-c2cn(C)c(=O)c3[nH]ccc23)c1` [I-13], the GI50 (in assay [1]; in assay [2]; with VCaP cells (Homo sapiens)) was below 500 nM throughout.

For `Cn1cc(-c2cc(C(C)(C)O)ccc2Oc2ccc(CCN3CC4(C3)CN(c3ccc(C(=O)N[C@H]5CC[C@H](Oc6ccc(C#N)c(Cl)c6)CC5)nn3)C4)cc2)c2cc[nH]c2c1=O` [I-121], the values for the GI50 (in assay [1]; in assay [2]; in the assay with VCaP cells) were below 500 nM, 500 to 1500 nM and below 500 nM, respectively.

Consider `CCS(=O)(=O)Nc1ccc(Oc2ccc(CCC3CCN(c4ccc(C(=O)NC5CCC(Oc6ccc(C#N)c(Cl)c6)CC5)nn4)CC3)c(F)c2)c(-c2cn(C)c(=O)c3ccccc23)c1` (stereo not drawn) [I-242, N-[4-(3-chloro-4-cyano-phenoxy)cyclohexyl]-6-[4-[2-[4-[4-(ethylsulfonylamino)-2-(2-methyl-1-oxo-4-isoquinolyl)phenoxy]-2-fluoro-phenyl]ethyl]-1-piperidyl]pyridazine-3-carboxamide], for which the GI50 in assay [1] was below 500 nM; in assay [2] it was above 3000 nM; with VCaP cells (Homo sapiens), below 500 nM.

`CCS(=O)(=O)Nc1ccc(Oc2cccc(OCCCC3CCN(c4ccc(C(=O)NC5CCC(Oc6ccc(C#N)c(Cl)c6)CC5)nn4)CC3)c2F)c(-c2cn(C)c(=O)c3[nH]ccc23)c1` (stereo not drawn) [I-18]: the concentration for 50% growth inhibition (GI50) (in assay [1]; in assay [2]; in the assay with VCaP cells (Homo sapiens)) was below 500 nM each time.

`CCS(=O)(=O)c1ccc(Oc2cccc(CCCC3CCN(c4ncc(C(=O)N[C@H]5CC[C@H](Oc6ccc(C#N)c(Cl)c6)CC5)cn4)CC3)c2F)c(-c2cn(C)c(=O)c3[nH]ccc23)c1` [I-65]: the GI50 was below 500 nM in assay [1], above 3000 nM in assay [2] and below 500 nM in the assay on VCaP cells.

As to `Cn1cc(-c2cc(C(C)(C)O)ccc2Cc2ccc(CCC3CCN(c4ccc(C(=O)NC5CCC(Oc6ccc(C#N)c(Cl)c6)CC5)nn4)CC3)cc2)c2cc[nH]c2c1=O` (stereo not drawn) [I-205, N-[4-(3-chloro-4-cyano-phenoxy)cyclohexyl]-6-[4-[2-[4-[[4-(1-hydroxy-1-methyl-ethyl)-2-(6-methyl-7-oxo-1H-pyrrolo[2,3-c]pyridin-4-yl)phenyl]methyl]phenyl]ethyl]-1-piperidyl]pyridazine-3-carboxamide], the GI50 is below 500 nM in assay [1], above 3000 nM in assay [2] and 500 to 1500 nM with VCaP cells (Homo sapiens).

As for `CCS(=O)(=O)Nc1ccc(Oc2cccc(OCCN3CCN(c4ccc(C(=O)N[C@H]5CC[C@H](Oc6ccc(C#N)c(Cl)c6)CC5)nn4)CC3)c2F)c(-c2cn(C)c(=O)c3[nH]ccc23)c1` [I-14], the GI50 (in assay [1]; in assay [2]; with VCaP cells (Homo sapiens)) was below 500 nM in each case.

Consider `CCS(=O)(=O)c1ccc(-c2cn(C)c(=O)c3[nH]ccc23)c(-n2cc(CCC3CCN(c4ccc(C(=O)NC5CCC(Oc6ccc(C#N)c(Cl)c6)CC5)nn4)CC3)ncc2=O)c1` (stereo not drawn) [I-238, N-[4-(3-chloro-4-cyano-phenoxy)cyclohexyl]-6-[4-[2-[4-[5-ethylsulfonyl-2-(6-methyl-7-oxo-1H-pyrrolo[2,3-c]pyridin-4-yl)phenyl]-5-oxo-pyrazin-2-yl]ethyl]-1-piperidyl]pyridazine-3-carboxamide], for which the GI50 in assay [1] was above 3000 nM; in assay [2], above 3000 nM; in the assay on VCaP cells (Homo sapiens) it was below 500 nM.

As to `CCS(=O)(=O)Nc1ccc(Oc2cccc(CCC3CCN(c4ccc(C(=O)N[C@H]5CC[C@H](Oc6ccc(C#N)c(Cl)c6)CC5)nn4)CC3)c2)c(-c2cn(C)c(=O)c3[nH]ccc23)c1` [I-39], the values for the GI50 (in assay [1]; in assay [2]; with VCaP cells (Homo sapiens)) were below 500 nM, above 3000 nM and below 500 nM, respectively.

For `CCS(=O)(=O)c1ccc(Oc2ccc(CCC3CCN(c4ccc(C(=O)N[C@H]5CC[C@H](Oc6ccc(C#N)c(Cl)c6)CC5)nn4)CC3)cn2)c(-c2cn(C)c(=O)c3[nH]ccc23)c1` [I-220], the GI50 in assay [1] was below 500 nM; in assay [2], above 3000 nM; in the assay on VCaP cells, above 3000 nM.
